{
  "source": "PubChem BioAssay (NCI)",
  "test_in_all_cases": "NCI anticancer screen, dose series, 384-well format",
  "key": {"HS 578T breast": {"test_system": "HS 578T breast"}, "MDA-MB-435 melanoma": {"test_system": "MDA-MB-435 melanoma"}, "LOX IMVI melanoma": {"test_system": "LOX IMVI melanoma"}, "U251 glioblastoma": {"test_system": "U251 glioblastoma"}, "SF-539 CNS": {"test_system": "SF-539 CNS"}, "MDA-MB-468 breast": {"test_system": "MDA-MB-468 breast"}, "SK-MEL-5 melanoma": {"test_system": "SK-MEL-5 melanoma"}, "OVCAR-4 ovarian": {"test_system": "OVCAR-4 ovarian"}, "SK-MEL-28 melanoma": {"test_system": "SK-MEL-28 melanoma"}, "786-0 renal": {"test_system": "786-0 renal"}, "TK-10 renal": {"test_system": "TK-10 renal"}, "T-47D breast": {"test_system": "T-47D breast"}, "EKVX NSCLC": {"test_system": "EKVX NSCLC"}},
  "note": "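Abbreviation: GI50, concentration required for 50% inhibition of growth. TGI marks complete inhibition of growth.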",
  "data": [
    {"smiles": "NC1(c2ccc(-c3nc4ccn5c(=O)[nH]nc5c4cc3-c3ccccc3)cc2)CCC1", "values": [
      {"measurement": "GI50", "setting": "HS 578T breast", "value": 704, "unit": "nM"},
      {"measurement": "TGI", "setting": "HS 578T breast", "value": 2170, "unit": "nM"},
      {"measurement": "GI50", "setting": "MDA-MB-435 melanoma", "value": 2360, "unit": "nM"},
      {"measurement": "TGI", "setting": "MDA-MB-435 melanoma", "value": 7210, "unit": "nM"},
      {"measurement": "GI50", "setting": "LOX IMVI melanoma", "value": 1580, "unit": "nM"},
      {"measurement": "TGI", "setting": "LOX IMVI melanoma", "value": 2950, "unit": "nM"},
      {"measurement": "GI50", "setting": "U251 glioblastoma", "value": 1860, "unit": "nM"},
      {"measurement": "TGI", "setting": "U251 glioblastoma", "value": 4530, "unit": "nM"},
      {"measurement": "GI50", "setting": "SF-539 CNS", "value": 815, "unit": "nM"},
      {"measurement": "TGI", "setting": "SF-539 CNS", "value": 2080, "unit": "nM"},
      {"measurement": "GI50", "setting": "MDA-MB-468 breast", "value": 48.3, "unit": "nM"},
      {"measurement": "TGI", "setting": "MDA-MB-468 breast", "value": 514, "unit": "nM"},
      {"measurement": "GI50", "setting": "SK-MEL-5 melanoma", "value": 777, "unit": "nM"},
      {"measurement": "TGI", "setting": "SK-MEL-5 melanoma", "value": 1930, "unit": "nM"},
      {"measurement": "GI50", "setting": "OVCAR-4 ovarian", "value": 2790, "unit": "nM"},
      {"measurement": "TGI", "setting": "OVCAR-4 ovarian", "value": 7480, "unit": "nM"},
      {"measurement": "GI50", "setting": "SK-MEL-28 melanoma", "value": 1200, "unit": "nM"},
      {"measurement": "TGI", "setting": "SK-MEL-28 melanoma", "value": 2500, "unit": "nM"},
      {"measurement": "GI50", "setting": "786-0 renal", "value": 1070, "unit": "nM"},
      {"measurement": "TGI", "setting": "786-0 renal", "value": 2320, "unit": "nM"},
      {"measurement": "GI50", "setting": "TK-10 renal", "value": 1340, "unit": "nM"},
      {"measurement": "TGI", "setting": "TK-10 renal", "value": 3900, "unit": "nM"},
      {"measurement": "GI50", "setting": "T-47D breast", "value": 27.2, "unit": "nM"},
      {"measurement": "TGI", "setting": "T-47D breast", "value": 629, "unit": "nM"},
      {"measurement": "GI50", "setting": "EKVX NSCLC", "value": 1620, "unit": "nM"},
      {"measurement": "TGI", "setting": "EKVX NSCLC", "value": 5920, "unit": "nM"}
    ]}
  ]
}
